From patent US9586953B2, “Prodrugs of amino quinazoline kinase inhibitor” (GlaxoSmithKline Intellectual Property Development Limited, priority 2012, dated 2017)

Key:
[1] = In vivo Assay (II): half life of the prodrug after oral administration in rat; details: whole blood, rat (n=2), orally administered at a dose equivalent to 2 mg/kg of the parent ethanol compound, LC/MS, read-out: half life (T1/2)
Procedure: (§1) 2-((4-(Benzo[d]thiazol-5-ylamino)-6-(tert-butylsulfonyl)quinazolin-7-yl)oxy)ethyl dihydrogen phosphate was orally administered at a dose equivalent to 2 mg/kg of 2-((4-(benzo[d]thiazol-5-ylamino)-6-(tert-butylsulfonyl)quinazolin-7-yl)oxy)ethanol to a series of test animals. Rats (n=2) and dogs (n=3) were administered 2-((4-(benzo[d]thiazol-5-ylamino)-6-(tert-butylsulfonyl)quinazolin-7-yl)oxy)ethyl dihydrogen phosphate, whereas minipigs (male Göttingen minipigs (n=3)) were administered 2-((4-(benzo[d]thiazol-5-ylamino)-6-(tert-butylsulfonyl)quinazolin-7-yl)oxy)ethyl disodium phosphate. Blood samples were taken from each test animal at intervals between 0 to 24 hrs (25 hrs in dog) after administration. The concentration 2-((4-(benzo[d]thiazol-5-ylamino)-6-(tert-butylsulfonyl)quinazolin-7-yl)oxy)ethanol in each sample was determined by LC/MS. The average blood concentrations of 2-((4-(benzo[d]thiazol-5-ylamino)-6-(tert-butylsulfonyl)quinazolin-7-yl)oxy)ethanol in each test species, following oral administration of 2-((4-(benzo[d]thiazol-5-ylamino)-6-(tert-butylsulfonyl)quinazolin-7-yl)oxy)ethyl dihydrogen phosphate or disodium phosphate are shown in FIG. 4.

[2] = In vivo Assay (II): half life of the prodrug after oral administration in dog; details: whole blood, dog (n=3), orally administered at a dose equivalent to 2 mg/kg of the parent ethanol compound, LC/MS, read-out: half life (T1/2)
Procedure: as §1

[3] = In vivo Assay (II): half life of the prodrug after oral administration in minipig; parameters: species or system male Göttingen minipigs; details: male, Göttingen, whole blood, minipig (n=3), orally administered at a dose equivalent to 2 mg/kg of the parent ethanol compound, LC/MS, read-out: half life (T1/2)
Procedure: as §1

| half-life [1] [min] | half-life [2] [min] | half-life [3] [min] | Structure (SMILES) |
| --- | --- | --- | --- |
| 15 | 5 | – | CC(C)(C)S(=O)(=O)c1cc2c(Nc3ccc4scnc4c3)ncnc2cc1OCCOP(=O)(O)O [Example 1, 2-((4-(Benzo[d]thiazol-5-ylamino)-6-(tert-butylsulfonyl)quinazolin-7-yl)oxy)ethyl dihydrogen phosphate] |
| – | – | 26 | CC(C)(C)S(=O)(=O)c1cc2c(Nc3ccc4scnc4c3)ncnc2cc1OCCOP(=O)(O)O [Example 2, 2-((4-(Benzo[d]thiazol-5-ylamino)-6-(tert-butylsulfonyl)quinazolin-7-yl)oxy)ethyl disodium phosphate] |
